From patent US6511995B1, “Pyridine derivative and pharmaceutical containing the same” (Otsuka Pharmaceutical Co., Ltd., priority 1998, dated 2003)

Test system: Human Ito cells (LI90)
Experiment: Test for inhibition of collagen synthesis (3H proline labeling, hTGF β-1 treated cells)
Format: cell-based
Conditions: cultured with test compound in MEM containing 10 PM hTGF β-1 and 2% PDS for 16 hours, 3H proline labeling 24 hours, read-out: IC50 (μM), concentration at which the collagen synthesis is inhibited by 50% (T/C = 0.5)
Procedure: The pyridine derivatives (test compounds) obtained in Examples 1-2, 9-10, 21, 25, 29, 33-37, 39, 42, 44 and 46 were subjected to the following collagen synthesis test.
Test for Inhibition of Collagen Synthesis
Plasma obtained by centrifugation of rabbit blood was centrifuged again to remove platelets, and dialysis of the resulting supernatant was carried out against a Phosphate Buffered Saline (PBS) containing 0.01% (w/v) calcium chloride and 0.01% (w/v) magnesium chloride. Then, centrifugation was carried out to remove the residue and the resulting supernatant was immobilized at 56° C. for 30 minutes. The immobilized supernatant was sterilized by using a filter (0.22 μm) to prepare Plasma Derived Serum (PDS).
Human Ito cells (LI90) were plated in DULBECCO's modified eagle medium (DMEM) containing 10% fetal bovine serum and cultured in an incubator in the presence of 5% carbon dioxide (CO2) for 24 hours at 37° C., and then washed with PBS and cultured in Eagle's minimum essential medium (MEM) containing 2% PDS for additional 3 days. The cultured cells were washed with PBS and cultured together with the test compounds in MEM containing 10 PM hTGF (transforming growth factor) β-1 (containing 2% PDS based on the total amount of MEM) for 16 hours. Then, the cultured L190 was washed with PBS and RI (radioisotope) labeling was carried out in MEM containing ^3H proline as a radioactive labeled compound and 0.25 mM ascorbic acid for 24 hours. This cultured supernatant was precipitated by using trichloroacetic acid (TCA), and then the radioactivity in an […] fraction was measured and the resulting measured value was taken as collagen synthesis activity.
By comparing the radioactivity in the cultured supernatant containing the test compound with the radioactivity in the cultured supernatant containing no test compound (control), the collagen synthesis inhibition activity (T/C) was calculated by the following equation:
T/C=(radioactivity in cultured supernatant containing test compound)/(radioactivity in cultured supernatant of control).
IC50 was determined as the concentration (μM) at which the collagen systhesis can be inhibited by 50% (concentration of the test compound wherein C50=T/C corresponds to 0.5).

**Q.** O=C(Nc1ccc(Oc2cccc3c2CCC3O)nc1)c1ccc(Cl)c(Cl)c1 (stereo not shown) [Example 34, 3,4-dichloro-N1-{6-[(1-hydroxy-2,3-dihydro-1H-inden-4-yl)oxy]-3-pyridinyl}benzamide] was tested. Which IC50 did it give?
**A.** Its IC50 is 2.15 µM.

**Q.** O=C(Nc1ccc(Oc2cccc3c2CCC3=O)nc1)c1ccc(Cl)c(Cl)c1 [Example 1, 3,4-dichloro-N1-{6-[(1-oxo-2,3-dihydro-1H-inden-4-yl)oxy]-3-pyridinyl}benzamide] was tested. Which IC50 did it give?
**A.** Its IC50 is 2.14 µM.

**Q.** How did the IC50 turn out when O=C(Nc1ccc(Oc2ccc3c(c2)C(=O)CCCC3)nc1)c1ccc(Cl)c(Cl)c1 [Example 10] was run?
**A.** Its IC50 is 2.6 µM.

**Q.** For O=C(Nc1ccc(Oc2cccc3c2CC=C3)nc1)c1ccc(Cl)c(Cl)c1 [Example 35, 3,4-dichloro-N1-{6-[(1H-inden-7-yl)oxy]-3-pyridinyl}benzamide], which IC50 is on record?
**A.** The IC50 was 2.43 µM.

**Q.** Which IC50 does the source give for CC(O)c1ccc(Oc2ccc(NC(=O)c3ccc(Cl)c(Cl)c3)cn2)cc1 (stereo not shown) [Example 36, 3,4-dichloro-N1-{6-[4-(1-hydroxyethyl)phenoxy]-3-pyridinyl}benzamide] here?
**A.** Its IC50 is 3.72 µM.

**Q.** O=C(Nc1ccc(Oc2cccc3c2CCC3)nc1)c1ccc(Cl)c(Cl)c1 [Example 25, 3,4-dichloro-N1-(6-[(2,3-dihydro-1H-inden-4-yl)oxy]-3-pyridinyl}benzamide] was tested. Which IC50 did it give?
**A.** The IC50 was 2.7 µM.

**Q.** Which IC50 does the source give for Cc1cccc(Oc2ccc(NC(=O)c3ccc(Cl)c(Cl)c3)cn2)c1C [Example 29, 3,4-dichloro-N1-[6-(2,3-dimethylphenoxy)-3-pyridinyl]benzamide] here?
**A.** The IC50 was 1.58 µM.

**Q.** CC1(c2ccc(Oc3ccc(NC(=O)c4ccc(Cl)c(Cl)c4)cn3)cc2)OCCO1 [Example 33, 3,4-dichloro-N1-{6-[4-(2-methyl-1,3-dioxolane-2-yl)phenoxy]-3-pyridinyl}benzamide] was tested. Which IC50 did it give?
**A.** The IC50 was 3.88 µM.

**Q.** With CC(=O)OC1=CCc2c(Oc3ccc(NC(=O)c4ccc(Cl)c(Cl)c4)cn3)cccc21 [Example 46, N1-{6-[(3-acetoxy-1H-inden-7-yl)oxy]-3-pyridinyl}-3,4-dichlorobenzamide] as the compound, how does the IC50 read?
**A.** Its IC50 is 1.12 µM.

**Q.** How did the IC50 turn out when O=C(Nc1ccc(Cl)c(Cl)c1)c1ccc(Oc2cccc3c2CCCC3=O)nc1 [Example 42, N3-(3,4-dichlorophenyl)-6-[(5-oxo-5,6,7,8-tetrahydro-1-naphthalenyl)oxy]nicotinamide] was run?
**A.** The IC50 was 2.29 µM.

**Q.** With O=C(Nc1ccc(Cl)c(Cl)c1)c1ccc(Oc2cccc3c2CCC3=O)nc1 [Example 37, N3-(3,4-dichlorophenyl)-6-[(1-oxo-2,3-dihydro-1H-inden-4-yl)oxy]nicotinamide] as the compound, how does the IC50 read?
**A.** Its IC50 is 2.52 µM.

**Q.** O=C(Nc1ccc(Oc2cccc3c2CCCC3=O)nc1)c1ccc(Cl)c(Cl)c1 [Example 9, 3,4-dichloro-N1-{6-[(5-oxo-5,6,7,8-tetrahydro-1-naphthalenyl)oxy]-3-pyridinyl}benzamide] was tested. Which IC50 did it give?
**A.** The IC50 was 2.34 µM.

**Q.** With O=C(Nc1ccc(C(F)(F)F)cc1)c1ccc(Oc2cccc3c2CCC3=O)nc1 [Example 39, 6-[(1-oxo-2,3-dihydro-1H-inden-4-yl)oxy]-N3-[4-(trifluoromethyl)phenyl]nicotinamide] as the compound, how does the IC50 read?
**A.** The IC50 was 0.55 µM.

**Q.** For CC(=O)c1ccc(Oc2ccc(NC(=O)c3ccc(Cl)c(Cl)c3)cn2)cc1C [Example 21, N1-[6-(4-acetyl-3-methylphenoxy)-3-pyridinyl]-3,4-dichlorobenzamide], which IC50 is on record?
**A.** Its IC50 is 2.92 µM.

**Q.** For CC(=O)c1ccc(Oc2ccc(C(=O)Nc3ccc(C(F)(F)F)cc3)cn2)cc1 [Example 44, 6-(4-acetylphenoxy)-N3-[4-(trifluoromethyl)phenyl]nicotinamide], which IC50 is on record?
**A.** The IC50 was 0.92 µM.

**Q.** With O=C(Nc1ccc(Oc2cccc3c2CCC3=O)nc1)c1ccc(C(F)(F)F)cc1 [Example 2, N1-{6-[(1-oxo-2,3-dihydro-1H-inden-4-yl)oxy]-3-pyridinyl}-4-(trifluoromethyl)benzamide] as the compound, how does the IC50 read?
**A.** The IC50 was 2.9 µM.
